Experimental data: patent US11479550B2, “EP4 antagonist” (ONO PHARMACEUTICAL CO., LTD., priority 2017, dated 2022)

Legend:
human EP4 receptor = human EP4 receptor (Homo sapiens (Human), UniProt P35408); assay: EP4 antagonistic activity measurement experiment using prostanoid receptor subtype expressing cells; format: cell-based; conditions: CHO cells expressing human EP4 receptor; inhibition of cAMP production by PGE2 10 nM; 30 minutes at room temperature
Experimental: CHO cells expressing human EP4 receptor subtypes were prepared according to the methods of Nishigaki et al. (Non-Patent Literature 4), and used for experiment. Cells cultured to subconfluent were detached, and suspended in an assay medium (MEM containing 1 mmol/L IBMX, 1% HSA) such that a concentration became 1×10^6 cells/mL. For reaction, PGE2 was added to the cell suspension (25 μL) in a final concentration of 10 nmol/L, either alone or as a 25-μL PGE2 solution containing the test compound. After 30 minutes of reaction at room temperature, the amount of cAMP in the cells was quantified according to the method in the descriptions of the cAMP assay kit (CISBIO).
Note here that the antagonistic effect (IC50 value) of the test compound was calculated as a value that represents an inhibition rate against a reaction with PGE2 alone at 10 nM, a concentration that produces a submaximal cAMP producing effect.

human EP3 receptor = human EP3 receptor (Homo sapiens (Human), UniProt P43115); assay: EP3 binding activity measurement experiment using prostanoid receptor subtype expressing cells; conditions: human EP3 receptor expressing cell membrane fraction; [3H]-PGE2 2.5 nmol/L; Ki calculated from estimated IC50
Experimental: To each well of a 96 well plate, 10 μL of a medium (dimethyl sulfoxide; DMSO) which had been 10-fold diluted with an assay buffer solution (10 mmol/L KH2PO4—KOH containing 1 mmol/L EDTA, 10 mmol/L Mg^2+ and 100 mmol/L NaCl, pH6.0) or a DMSO solution of a test compound (final concentration of DMSO: 0.5%), 90 μL of assay buffer solution, 50 μL of 10 nmol/L [^3H]-PGE2 (final concentration: 2.5 nmol/L), and 50 μL of human EP3 receptor expressing cell membrane fraction (manufactured by Millipore) (membrane protein mass: 2.5 μg) were placed, and subjected to incubation at room temperature. In nonspecific binding group, instead of the medium, […] of PGE2 was added (final concentration of PGE2: 10 μmol/L). After 60 minutes, a membrane fraction was subjected to suction filtration using a cell harvester, and collected onto a glass fiber (GF/B) plate (hereinafter, “filter plate”) which had been wetted with a washing buffer solution (10 mmol/L KH2PO4—KOH containing 100 mmol/L NaCl, pH6.0) in advance. Furthermore, an operation of adding about 0.2 mL of the washing buffer solution to the 96 well plate after suction filtration, and carrying out suction filtration was repeated twice, and the remaining membrane fractions were collected. The filter plate was washed with […] of washing buffer solution twice, and then dried at 50° C. to 60° C. for about 60 minutes. After an accessary back seal was attached to the bottom surface of the filter plate, about 50 μL per well of liquid scintillation cocktail was added to the filter plate, and a scaling film sheet was attached to the upper surface of the filter plate. The filter plate was shaken, and then radioactivity (cpm) of the filter plate was measured using a microplate scintillation counter. A specific binding amount of [^3H]-PGE2 to EP3 receptor was calculated by subtracting the radioactivity of the nonspecific binding group from the radioactivity other than the radioactivity of the nonspecific binding group. The inhibition rate by the test compound was calculated from the specific binding amount of [^3H]-PGE2 in a medium group and the compound of the present invention group, a Ki value (dissociation constant of the test compound) was calculated from estimated IC50 value (the concentration of the test compound required for inhibiting 50% with respect to the specific binding amount of the medium group) according to the following formula.
Note here that the Kd value of [^3H]-PGE2 was estimated from nonlinear regression analysis by calculating a specific binding amount at the time when [^3H]-PGE2 having various concentrations according to the above method was added. As a result, it was shown that the compound of the present invention had weak binding activity with respect to EP3 receptor, and was an antagonist selective to the EP4 receptor. Note here that binding activities with respect to EP1 and EP2 receptors can be measured by the same method as the measurement experiment of the EP3 binding activity measurement experiment.

Sequence of human EP4 receptor (P35408 whole entry): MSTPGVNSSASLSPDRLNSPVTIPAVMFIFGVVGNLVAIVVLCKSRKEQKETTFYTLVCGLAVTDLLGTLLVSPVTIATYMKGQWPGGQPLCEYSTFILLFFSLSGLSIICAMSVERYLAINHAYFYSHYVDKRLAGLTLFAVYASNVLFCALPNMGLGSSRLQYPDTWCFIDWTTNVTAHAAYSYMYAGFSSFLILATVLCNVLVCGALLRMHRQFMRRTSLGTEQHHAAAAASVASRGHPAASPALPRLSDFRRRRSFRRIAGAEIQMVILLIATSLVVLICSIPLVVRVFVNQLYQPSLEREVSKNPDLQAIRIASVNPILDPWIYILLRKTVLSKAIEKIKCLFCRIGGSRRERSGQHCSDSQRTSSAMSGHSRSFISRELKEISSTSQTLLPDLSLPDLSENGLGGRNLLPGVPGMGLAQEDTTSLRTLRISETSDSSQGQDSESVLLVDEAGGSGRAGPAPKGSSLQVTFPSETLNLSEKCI
Sequence of human EP3 receptor (P43115 whole entry): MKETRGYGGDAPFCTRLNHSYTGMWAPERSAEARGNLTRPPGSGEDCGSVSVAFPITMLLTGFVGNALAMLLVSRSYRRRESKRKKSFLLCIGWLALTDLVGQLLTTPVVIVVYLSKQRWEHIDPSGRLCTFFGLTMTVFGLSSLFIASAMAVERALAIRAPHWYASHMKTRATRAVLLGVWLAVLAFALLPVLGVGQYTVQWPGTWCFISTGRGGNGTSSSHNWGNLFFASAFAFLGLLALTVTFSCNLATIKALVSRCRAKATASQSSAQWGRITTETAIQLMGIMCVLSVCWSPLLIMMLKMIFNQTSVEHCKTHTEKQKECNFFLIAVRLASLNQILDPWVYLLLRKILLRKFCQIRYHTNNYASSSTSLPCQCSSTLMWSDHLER

Row | Compound | IC50 (human EP4 receptor) | Ki (human EP3 receptor)
1 | COCCNC(=O)c1ccc2c(c1)c(C)cn2C(C)C(=O)Nc1cc(Cn2cc(C)cn2)ccc1CCCC(=O)O (single isomer, unassigned) [Example 8-13(2), 4-{2-[(2-{5-[(2-methoxyethyl)carbamoyl]-3-methyl-1H-indol-1-yl}propanoyl)amino]-4-[(4-methyl-1H-pyrazol-1-yl)methyl]phenyl}butanoic acid] | 6.3 nM | 1600 nM
2 | CNC(=O)c1ccc2c(C)cn(C(C)C(=O)Nc3cc(C(=O)c4cnn(C)c4)ccc3CCCC(=O)O)c2c1 (centres unmarked) [Example 18-5(2)] | 3.2 nM | 120 nM
3 | CNC(=O)c1ccc2c(C)cn(C(C)C(=O)Nc3cc(CN4CCCS4(=O)=O)ccc3CCCC(=O)O)c2c1 (centres unmarked) [Example 1, 4-{4-[(1,1-dioxide-1,2-thiazolidin-2-yl)methyl]-2-({2-[3-methyl-6-(methylcarbamoyl)-1H-indol-1-yl]propanoyl}amino)phenyl}butanoic acid] | 27 nM | > 10000 nM
4 | CNC(=O)c1ccc2c(c1)c(C)cn2C(C)C(=O)Nc1cc(Cn2cc(C)cn2)ccc1CCCC(=O)O (single isomer, unassigned) [Example 8-3(2), 4-{2-({2-[3-methyl-5-(methylcarbamoyl)-1H-indol-1-yl]propanoyl}amino)-4-[(4-methyl-1H-pyrazol-1-yl)methyl]phenyl}butanoic acid] | 4.8 nM | 1500 nM
5 | CNC(=O)c1ccc2c(C)cn(C(C)C(=O)Nc3cc(Cn4cc(C(C)C)nn4)ccc3CCCC(=O)O)c2c1 (single isomer, unassigned) [Example 6-5(1), 4-{4-[(4-isopropyl-1H-1,2,3-triazol-1-yl)methyl]-2-({2-[3-methyl-6-(methylcarbamoyl)-1H-indol-1-yl]propanoyl}amino)phenyl}butanoic acid] | 2.7 nM | 
6 | CNC(=O)c1ccc2c(C)cn(C(C)C(=O)Nc3cc(COc4cc(C)nc(C)c4)ccc3CCCC(=O)O)c2c1 (centres unmarked) [Example 1-5, 4-[4-{[(2,6-dimethyl-4-pyridinyl)oxy]methyl}-2-({2-[3-methyl-6-(methylcarbamoyl)-1H-indol-1-yl]propanoyl}amino)phenyl]butanoic acid] | 4.9 nM | 
7 | CNC(=O)c1ccc2c(C)cn(C(C)C(=O)Nc3cc(C(O)c4cnn(C)c4)ccc3CCCC(=O)O)c2c1 (centres unmarked) [Example 18-3] | 6.2 nM | 
8 | CNC(=O)c1ccc2c(C3CC3)cn(C(C)C(=O)Nc3cc(C#N)ccc3CCCC(=O)O)c2c1 (single isomer, unassigned) [Example 11-23(2), 4-[4-cyano-2-({2-[3-cyclopropyl-6-(methylcarbamoyl)-1H-indol-1-yl]propanoyl}amino)phenyl]butanoic acid] | 6.5 nM | 
9 | CCNC(=O)c1ccc2c(C)cn([C@H](C)C(=O)Nc3cc(C#N)ccc3CCCC(=O)O)c2c1 [Example 11-1(2)] | 1.3 nM | 

Next, values leading:

Row | IC50 (human EP4 receptor) | Ki (human EP3 receptor) | Compound
10 | 0.7 nM | 410 nM | COCCNC(=O)c1ccc2c(C)cn(C(C)C(=O)Nc3cc(Cn4cc(C)cn4)ccc3CCCC(=O)O)c2c1 (single isomer, unassigned) [Example 3-9(2), 4-{2-[(2-{6-[(2-methoxyethyl)carbamoyl]-3-methyl-1H-indol-1-yl}propanoyl)amino]-4-[(4-methyl-1H-pyrazol-1-yl)methyl]phenyl}butanoic acid]
11 | 1.9 nM | 2300 nM | COCCNC(=O)c1ccc2c(C)cn(C(C)C(=O)Nc3cc(C#N)ccc3CCCC(=O)O)c2c1 (single isomer, unassigned) [Example 11-15(2), 4-{4-cyano-2-[(2-{6-[(2-methoxyethyl)carbamoyl]-3-methyl-1H-indol-1-yl}propanoyl)amino]phenyl}butanoic acid]
12 | 2.5 nM |  | CNC(=O)c1ccc2c(C)cn(C(C)C(=O)Nc3cc(Cn4cnc(C5CC5)n4)ccc3CCCC(=O)O)c2c1 (single isomer, unassigned) [Example 4-1(2), 4-{4-[(3-cyclopropyl-1H-1,2,4-triazol-1-yl)methyl]-2-({2-[3-methyl-6-(methylcarbamoyl)-1H-indol-1-yl]propanoyl}amino)phenyl}butanoic acid]
13 | 2.1 nM |  | CCCNC(=O)c1ccc2c(C)cn(C(C)C(=O)Nc3cc(Cn4cc(C)cn4)ccc3CCCC(=O)O)c2c1 (single isomer, unassigned) [Example 3-5(2), 4-{2-({2-[3-methyl-6-(propylcarbamoyl)-1H-indol-1-yl]propanoyl}amino)-4-[(4-methyl-1H-pyrazol-1-yl)methyl]phenyl}butanoic acid]
14 | 0.57 nM |  | COCCNC(=O)c1ccc2c(C3CC3)cn(C(C)C(=O)Nc3cc(C#N)ccc3CCCC(=O)O)c2c1 (single isomer, unassigned) [Example 11-25(2), 4-{4-cyano-2-[(2-{3-cyclopropyl-6-[(2-methoxyethyl)carbamoyl]-1H-indol-1-yl}propanoyl)amino]phenyl}butanoic acid]
